Experimental data reported in patent US20100061982A1, “3-SUBSTITUTED-1H-INDOLE, 3-SUBSTITUTED-1H-PYRROLO[2,3-B]PYRIDINE AND 3-SUBSTITUTED-1H-PYRROLO[3,2-B]PYRIDINE COMPOUNDS, THEIR USE AS MTOR KINASE AND PI3 KINASE INHIBITORS, AND THEIR SYNTHESES” (priority 2008, published 2010).
In brackets after ≈: the same amount, converted by molar mass. Like-named read-outs stand apart in the source and are kept apart here.

What was measured:
[1] = CACO2 permeability a-b/b-a; type: in vitro ADME; settings: human, Caco-2
[2] = Microsome Stability (15 min), human; type: in vitro ADME; settings: microsomes
[3] = Microsome Stability (15 min), nude mouse; type: in vitro ADME; settings: nude, mouse, microsomes
[4] = Microsome Stability (15 min), rat; type: in vitro ADME; settings: microsomes
mTOR = mTOR (Homo sapiens, UniProt P42345); experiment: mTOR Enzyme Assay (DELFIA, purified enzyme); type: biochemical; design: FLAG
[5] = PAMPA permeability pH 7.4
[6] = Buffer Stability (37° C.)
[7] = In vivo blood/plasma and tumor levels of prodrug and metabolites after 50 mg, kg po; settings: 50 mg
Solubility pH 7.4 = settings: pH 7.4, aqueous buffer
PI3K alpha = PI3K alpha (Homo sapiens, UniProt P42336); experiment: PI3K-alpha Fluorescence Polarization Assay; type: biochemical
PI3K alpha, sequence (P42336 whole entry, species assumed): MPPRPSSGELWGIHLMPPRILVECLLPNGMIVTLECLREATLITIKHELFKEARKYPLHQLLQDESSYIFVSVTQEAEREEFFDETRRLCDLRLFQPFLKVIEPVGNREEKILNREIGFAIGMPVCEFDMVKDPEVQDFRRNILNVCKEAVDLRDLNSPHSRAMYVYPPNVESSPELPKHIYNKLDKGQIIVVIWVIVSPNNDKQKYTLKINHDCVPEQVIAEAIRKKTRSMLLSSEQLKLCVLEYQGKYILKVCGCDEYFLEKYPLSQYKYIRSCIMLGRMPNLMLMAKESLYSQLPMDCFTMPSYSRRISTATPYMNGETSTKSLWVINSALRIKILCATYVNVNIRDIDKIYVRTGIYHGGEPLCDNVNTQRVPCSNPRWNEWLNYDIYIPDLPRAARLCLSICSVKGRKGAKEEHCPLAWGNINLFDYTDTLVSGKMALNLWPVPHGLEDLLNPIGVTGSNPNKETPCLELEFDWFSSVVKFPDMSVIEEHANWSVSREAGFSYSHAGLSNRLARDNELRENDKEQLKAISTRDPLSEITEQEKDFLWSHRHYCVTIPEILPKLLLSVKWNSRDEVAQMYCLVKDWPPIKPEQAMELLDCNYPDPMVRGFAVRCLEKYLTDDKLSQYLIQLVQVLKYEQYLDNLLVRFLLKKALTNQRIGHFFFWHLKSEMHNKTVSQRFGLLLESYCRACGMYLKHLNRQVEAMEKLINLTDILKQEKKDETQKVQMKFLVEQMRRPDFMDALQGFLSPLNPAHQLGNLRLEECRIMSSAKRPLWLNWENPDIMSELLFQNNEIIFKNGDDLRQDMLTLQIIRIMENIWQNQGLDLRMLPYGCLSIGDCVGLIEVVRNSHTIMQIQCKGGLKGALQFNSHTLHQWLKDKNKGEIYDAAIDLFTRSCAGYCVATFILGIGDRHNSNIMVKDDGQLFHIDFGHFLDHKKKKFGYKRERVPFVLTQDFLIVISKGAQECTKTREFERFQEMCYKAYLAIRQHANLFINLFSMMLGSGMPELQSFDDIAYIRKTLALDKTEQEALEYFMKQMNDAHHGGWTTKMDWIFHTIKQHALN
PI3K alpha, sequence (P27986 whole entry partner, species assumed): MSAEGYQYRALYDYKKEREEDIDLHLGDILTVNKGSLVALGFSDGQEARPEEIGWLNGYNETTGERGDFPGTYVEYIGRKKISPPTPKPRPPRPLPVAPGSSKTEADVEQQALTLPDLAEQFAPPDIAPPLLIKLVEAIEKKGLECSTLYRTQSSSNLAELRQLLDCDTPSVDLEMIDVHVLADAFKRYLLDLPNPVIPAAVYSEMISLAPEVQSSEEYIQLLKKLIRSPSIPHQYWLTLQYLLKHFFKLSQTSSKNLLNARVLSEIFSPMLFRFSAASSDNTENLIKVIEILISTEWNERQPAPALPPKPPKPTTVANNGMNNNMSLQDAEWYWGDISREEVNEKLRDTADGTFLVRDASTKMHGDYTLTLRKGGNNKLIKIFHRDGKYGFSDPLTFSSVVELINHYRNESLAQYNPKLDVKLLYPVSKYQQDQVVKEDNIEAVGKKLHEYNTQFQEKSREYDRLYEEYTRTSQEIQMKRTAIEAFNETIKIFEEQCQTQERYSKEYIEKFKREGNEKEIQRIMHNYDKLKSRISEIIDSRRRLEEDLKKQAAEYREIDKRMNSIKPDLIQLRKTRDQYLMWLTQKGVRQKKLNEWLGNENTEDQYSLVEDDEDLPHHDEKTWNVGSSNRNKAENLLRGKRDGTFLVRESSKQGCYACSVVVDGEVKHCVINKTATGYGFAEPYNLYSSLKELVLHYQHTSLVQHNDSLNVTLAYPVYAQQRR

[8] = Plasma Stability (37° C.), rat
[9] = Plasma Stability (37° C.), nude mouse
[10] = Phase I (NADPH), read-out: Microsome Stability (15 min) T ½ Phase I human
[11] = value after the slash in Table VIc, read-out: Microsome Stability (15 min) T ½ human, second value of cell
[12] = Phase I (NADPH), read-out: Microsome Stability (15 min) T ½ Phase I nude mouse
[13] = value after the slash in Table VIc, read-out: Microsome Stability (15 min) T ½ nude mouse, second value of cell
[14] = Phase I (NADPH), read-out: Microsome Stability (15 min) T ½ Phase I rat
[15] = value after the slash in Table VIc, read-out: Microsome Stability (15 min) T ½ rat, second value of cell

| Compound | half-life [2, 10] [min] | half-life [3, 12] [min] | half-life [4, 14] [min] | IC50 (mTOR; read-out: mTOR Mean IC50) [nM] | PAMPA Pe [5] | Buffer Stability (37° C.) % Remaining (at 16-23 hours) SGF [6] [%] | Buffer Stability (37° C.) % Remaining (at 16-23 hours) SIF [6] [%] | Buffer Stability (37° C.) % Remaining (at 16-23 hours) pH 1 [6] [%] | Buffer Stability (37° C.) % Remaining (at 16-23 hours) pH 4.5 [6] [%] | Buffer Stability (37° C.) % Remaining (at 16-23 hours) pH 6.6 [6] [%] | Buffer Stability (37° C.) % Remaining (at 16-23 hours) pH 7.4 [6] [%] | Buffer Stability (37° C.) % Remaining (at 16-23 hours) pH 9 [6] [%] | solubility (Solubility pH 7.4) [µg/mL] | IC50 (PI3K alpha) [nM] | also measured |
| --- | --- | --- | --- | --- | --- | --- | --- | --- | --- | --- | --- | --- | --- | --- | --- |
| COc1ccc2[nH]c(-c3ccccc3)c(C=C3Oc4cc(O)cc(O)c4C3=O)c2c1 [4,6-dihydroxy-2-[(5-methoxy-2-phenyl-1H-indol-3-yl)methylene]-1-benzofuran-3(2H)-one] | 24 | 29 | > 30 | 80 | 0 10e−6 cm/s | 95 | 77 | 97 | 96 | 83 | 68 | 72 | – | – | Papp A→B ([1]; a − b (first value of cell), read-out: CACO2 Pe a − b): 1.25 ×10⁻⁶ cm/s; Papp B→A ([1]; b − a (second value of cell), read-out: CACO2 Pe b − a): 6.65 ×10⁻⁶ cm/s; half-life [2, 11]: 5 min; half-life [3, 13]: 5 min; half-life [4, 15]: 5 min; plasma prodrug, Dosed @ 50 mg, kg po (precursor phenolic compound dosed) ([7]; 1 h conc.): bql, bql*; plasma prodrug, Dosed @ 50 mg, kg po (precursor phenolic compound dosed) ([7]; 4 h conc.): bql, bql* |
| COc1ccc2c(c1)c(/C=C1\Oc3cc(O)cc(O)c3C1=O)c(C)n2CCN1CCN(C)CC1 [(2Z)-4,6-dihydroxy-2-({5-methoxy-2-methyl-1-[2-(4-methylpiperazin-1-yl)ethyl]-1H-indol-3-yl}methylene)-1-benzofuran-3(2H)-one] | 11 | > 30 | 21 | 22.5 | 0 10e−6 cm/s | 99 | 63 | 99 | 78 | 63 | 66 | 79 | 32 (≈ 69 µM) | – | half-life [2, 11]: 17 min; half-life [3, 13]: 25 min; half-life [4, 15]: 6 min |
| COc1ccc2c(c1)c(/C=C1\Oc3cc(O)ccc3C1=O)c(C)n2CCN1CCN(C)CC1 [(2Z)-6-hydroxy-2-({5-methoxy-2-methyl-1-[2-(4-methylpiperazin-1-yl)ethyl]-1H-indol-3-yl}methylene)-1-benzofuran-3(2H)-one] | 6 | 26 | 12 | 325 | 0.01 10e−6 cm/s | – | – | – | – | – | – | – | 68 (≈ 152 µM) | – | IC50 (PI3K alpha; read-out: PI3K alpha Mean IC50): 12.2 nM; half-life [2, 11]: 5 min; half-life [3, 13]: 20 min; half-life [4, 15]: 8 min |
| COc1ccc2c(c1)c(/C=C1\Oc3cc(OC(=O)N4CCOCC4)cc(OC(=O)N4CCOCC4)c3C1=O)cn2CCCN(C)C [Example 1, (2Z)-2-({1-[3-(dimethylamino)propyl]-5-methoxy-1H-indol-3-yl}methylene)-3-oxo-2,3-dihydro-1-benzofuran-4,6-diyl dimorpholine-4-carboxylate] | – | – | > 30 | > 4000 | 1.4 10e−6 cm/s | – | – | – | – | – | – | – | > 100 | > 10000 | – |
| COc1ccc2[nH]c(-c3ccccc3)c(/C=C3\Oc4cc(OC(C)=O)cc(OC(C)=O)c4C3=O)c2c1 [Example 3, (2Z)-2-[(5-methoxy-2-phenyl-1H-indol-3-yl)methylene]-3-oxo-2,3-dihydro-1-benzofuran-4,6-diyl diacetate] | 12 | 9 | > 30 | – | 0 10e−6 cm/s | 66 | 0 | 2 | 64 | 0 | 0 | 0 | – | – | IC50 (PI3K alpha; read-out: PI3K alpha Mean IC50): 2 nM; Plasma Stability (37° C.) % Remaining (3-3.5 hours) rat [8]: 42%; Plasma Stability (37° C.) % Remaining (3-3.5 hours) nude mouse [9]: 34% |
| COc1ccc2[nH]c(-c3ccccc3)c(/C=C3\Oc4cc(OC(=O)OC(C)C)cc(OC(=O)OC(C)C)c4C3=O)c2c1 [Example 7, diisopropyl (2Z)-2-[(5-methoxy-2-phenyl-1H-indol-3-yl)methylene]-3-oxo-2,3-dihydro-1-benzofuran-4,6-diyl biscarbonate] | 5 | > 30 | 3 | – | 0 10e−6 cm/s | 93 | 0 | 94 | 91 | 59 | 16 | 0 | – | – | IC50 (PI3K alpha; read-out: PI3K alpha Mean IC50): 896 nM; Plasma Stability (37° C.) % Remaining (3-3.5 hours) rat [8]: 0%; Plasma Stability (37° C.) % Remaining (3-3.5 hours) nude mouse [9]: 22% |
| CCOC(=O)CNC(=O)Oc1ccc2c(c1)O/C(=C\c1cn(CCCN(C)C)c3ccc(OC)cc13)C2=O [Example 25, ethyl N-({[(2Z)-2-({1-[3-(dimethylamino)propyl]-5-methoxy-1H-indol-3-yl}methylene)-3-oxo-2,3-dihydro-1-benzofuran-6-yl]oxy}carbonyl)glycinate] | – | – | – | 610 | 0 10e−6 cm/s | – | – | – | – | – | – | – | > 100 | 86 | – |
| COc1ccc2[nH]c(-c3ccccc3)c(/C=C3\Oc4cc(OP(=O)(O)c5ccccc5)ccc4C3=O)c2c1 [Example 26, (2Z)-2-[(5-methoxy-2-phenyl-1H-indol-3-yl)methylene]-3-oxo-2,3-dihydro-1-benzofuran-6-yl hydrogen phenylphosphonate] | – | – | > 30 | 2200 | 0 10e−6 cm/s | – | – | – | – | – | – | – | 11 (≈ 21 µM) | 108 | – |
| COc1ccc2c(c1)c(/C=C1\Oc3cc(OC(=O)N4CCN(C)CC4)cc(OC(=O)N4CCN(C)CC4)c3C1=O)cn2CCCN(C)C [Example 36, (2Z)-2-({1-[3-(dimethylamino)propyl]-5-methoxy-1H-indol-3-yl}methylene)-3-oxo-2,3-dihydro-1-benzofuran-4,6-diyl bis(4-methylpiperazine-1-carboxylate)] | – | – | – | 1080 | 0.23 10e−6 cm/s | – | – | – | – | – | – | – | 36 (≈ 54.5 µM) | > 10000 | – |
| COc1ccc2c(c1)c(/C=C1\Oc3cc(O)cc(OC(=O)N(C)C)c3C1=O)c(C)n2CCN1CCN(C)CC1 [Example 39, (2Z)-6-hydroxy-2-({5-methoxy-2-methyl-1-[2-(4-methylpiperazin-1-yl)ethyl]-1H-indol-3-yl}methylene)-3-oxo-2,3-dihydro-1-benzofuran-4-yldimethylcarbamate] | – | – | 27 | – | 0 10e−6 cm/s | – | – | – | – | – | – | – | > 100 | 842 | IC50 (mTOR): > 4000 nM |
| CNC(=O)Oc1ccc2c(c1)C(=O)/C(=C/c1cn(CCN3CCN(C)CC3)c3ccc(OC)cc13)O2 [Example 45, (2Z)-2-({5-methoxy-1-[2-(4-methylpiperazin-1-yl)ethyl]-1H-indol-3-yl}methylene)-3-oxo-2,3-dihydro-1-benzofuran-5-yl methylcarbamate] | – | – | 9 | > 4000 | 0.43 10e−6 cm/s | – | – | – | – | – | – | – | 63 (≈ 128 µM) | – | – |
